Laboratory results: patent publication US8481730B2, “Method of synthesis of Bosentan, its polymorphic forms and its salts” (CIPLA Limited, priority 2008, dated 2013)

Conditions: on exposure to air; "stable" = non-hygroscopic, does not pick up moisture even in a highly humid atmosphere
Description: According to another aspect of the present invention, there is provided anhydrous bosentan.

## COc1ccccc1Oc1c(NS(=O)(=O)c2ccc(C(C)(C)C)cc2)nc(-c2ncccn2)nc1OCCO [Form B, Bosentan Form B]
  stability / hygroscopicity (moisture pick-up): stable and non-hygroscopic
